In JP2005255641A, “ベンゾフラン誘導体” (Kyowa Hakko Kogyo Co Ltd, priority 2004, dated 2005) one finds inhibition data, which are given here for 38 compounds.

For the first experiment, the target named is T1, recombinant human PDE-IV (HSPDE4A) [組み換えヒトPDE−IV (HSPDE4A)] (Homo sapiens, UniProt P27815).
T1 construct: made in house; host or cells: Sf9 insect cells
T1 sequence (P27815 whole entry): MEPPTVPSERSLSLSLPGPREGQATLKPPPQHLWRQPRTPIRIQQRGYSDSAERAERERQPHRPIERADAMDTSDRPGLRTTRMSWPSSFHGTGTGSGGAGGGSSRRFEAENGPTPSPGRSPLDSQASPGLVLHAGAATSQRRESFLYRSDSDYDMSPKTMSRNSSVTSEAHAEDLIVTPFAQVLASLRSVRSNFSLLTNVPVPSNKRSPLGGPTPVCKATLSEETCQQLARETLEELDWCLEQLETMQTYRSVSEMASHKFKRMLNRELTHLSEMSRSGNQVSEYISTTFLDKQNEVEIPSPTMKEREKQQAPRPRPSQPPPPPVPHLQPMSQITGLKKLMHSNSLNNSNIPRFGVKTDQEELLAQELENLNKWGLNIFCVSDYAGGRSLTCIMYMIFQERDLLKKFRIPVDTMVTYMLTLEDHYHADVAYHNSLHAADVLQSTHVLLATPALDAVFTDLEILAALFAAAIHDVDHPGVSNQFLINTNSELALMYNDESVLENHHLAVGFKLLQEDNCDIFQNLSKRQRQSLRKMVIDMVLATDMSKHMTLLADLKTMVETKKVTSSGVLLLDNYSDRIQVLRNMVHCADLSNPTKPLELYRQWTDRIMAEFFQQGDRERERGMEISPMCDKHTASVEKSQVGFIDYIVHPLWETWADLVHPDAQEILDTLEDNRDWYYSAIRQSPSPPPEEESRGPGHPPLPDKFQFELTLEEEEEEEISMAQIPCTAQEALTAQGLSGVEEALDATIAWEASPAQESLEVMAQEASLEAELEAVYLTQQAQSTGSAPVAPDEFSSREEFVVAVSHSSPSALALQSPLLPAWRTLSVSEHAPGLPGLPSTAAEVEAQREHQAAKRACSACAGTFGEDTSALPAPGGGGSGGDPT
Put plainly: Recombinant human PDE-IV enzyme inhibition test. Type of experiment: biochemical. Conditions: drug concentration 1 μmol/L; [3H]cAMP 1 μmol/L; 30 °C, 10-30 min; DMSO 1.7%; read-out: enzyme inhibitory activity.
`CCc1cc2c(C3(C#N)CCN(CC(=O)O)CC3)ccc(OC)c2o1` [化合物76, 2−(4−シアノ−4−(2−エチル−7−メトキシベンゾフラン−4−イル)ピペリジン−1−イル)酢酸, 0.3H2O]: the inhibition was no less than 50%. As for `COc1ccc(C2(C#N)CCN(CC(=O)O)CC2)c2cc(C(C)=O)oc12` [化合物90, 2−(4−(2−アセチル−7−メトキシベンゾフラン−4−イル)−4−シアノピペリジン−1−イル)酢酸], the inhibition is no less than 50%.

`COc1ccc(C2(C#N)CCN(CC(=O)O)CC2)c2cc(C(=O)C(C)C)oc12` [化合物91, 2−(4−シアノ−4−(2−イソブチリル−7−メトキシベンゾフラン−4−イル)ピペリジン−1−イル)酢酸]: the inhibition was no less than 50%.

For `COc1ccc(C2(C#N)CCN(CC(=O)O)CC2)c2cc(C(=O)c3ccccc3)oc12` [化合物92, 2−(4−(2−ベンゾイル−7−メトキシベンゾフラン−4−イル)−4−シアノピペリジン−1−イル)酢酸], the inhibition is no less than 50%. In the case of `COC(=O)c1cc2c(C3(C#N)CCN(CC(=O)O)CC3)ccc(OC)c2o1` [化合物93, 2−(4−シアノ−4−(7−メトキシ−2−メトキシカルボニルベンゾフラン−4−イル)ピペリジン−1−イル)酢酸], the inhibition was no less than 50%. In the case of `COc1ccc(C2(C#N)CCN(CC(=O)O)CC2)c2cc(C#N)oc12` [化合物99, 2−(4−シアノ−4−(2−シアノ−7−メトキシベンゾフラン−4−イル)ピペリジン−1−イル)酢酸], the inhibition was no less than 50%. `CCc1cc2c(o1)c(OC)ccc2[C@]1(C#N)CC[C@@H](C(=O)O)CC1` [化合物101, シス−4−シアノ−4−(2−エチル−7−メトキシベンゾフラン−4−イル)シクロヘキサンカルボン酸]: the inhibition is no less than 50%. The same measure, in the same setting: the figure for `COc1ccc([C@]2(C#N)CC[C@@H](C(=O)O)CC2)c2cc(C3(C)CC3)oc12` [化合物103, シス−4−シアノ−4−(7−メトキシ−2−(1−メチルシクロプロピル)ベンゾフラン−4−イル)シクロヘキサンカルボン酸] is no less than 50%; for `COc1ccc([C@]2(C#N)CC[C@@H](C(=O)O)CC2)c2cc(C3(C(F)(F)F)CC3)oc12` [化合物104, シス−4−シアノ−4−(7−メトキシ−2−(1−トリフルオロメチルシクロプロピル)ベンゾフラン−4−イル)シクロヘキサンカルボン酸] it is no less than 50%; for `N#C[C@]1(c2ccc(OC(F)F)c3oc(C4CC4)cc32)CC[C@H](C(=O)O)CC1` [化合物106, シス−4−シアノ−4−(2−シクロプロピル−7−ジフルオロメトキシベンゾフラン−4−イル)シクロヘキサンカルボン酸, 0.2H2O] it is no less than 50%.

As to `CC1(c2cc3c(o2)c(OC(F)F)ccc3[C@]2(C#N)CC[C@@H](C(=O)O)CC2)CC1` [化合物107, シス−4−シアノ−4−(7−ジフルオロメトキシ−2−(1−メチルシクロプロピル)ベンゾフラン−4−イル)シクロヘキサンカルボン酸], the inhibition is no less than 50%. In the case of `COc1ccc([C@]2(C#N)CC[C@@H](C(=O)O)CC2)c2cc(C(C)O)oc12` (some centres unmarked) [化合物108, シス−4−シアノ−4−(2−(1−ヒドロキシエチル)−7−メトキシベンゾフラン−4−イル)シクロヘキサンカルボン酸], the inhibition is no less than 50%.

In the case of `COc1ccc([C@]2(C#N)CC[C@@H](C(=O)O)CC2)c2cc(C(C)=O)oc12` [化合物109, シス−4−(2−アセチル−7−メトキシベンゾフラン−4−イル)−4−シアノシクロヘキサンカルボン酸], the inhibition was no less than 50%. As for `COc1ccc([C@]2(C#N)CC[C@@H](C(=O)O)CC2)c2cc(C(C)(C)O)oc12` [化合物110, シス−4−シアノ−4−(2−(1−ヒドロキシ−1−メチルエチル)−7−メトキシベンゾフラン−4−イル)シクロヘキサンカルボン酸], the inhibition was no less than 50%. Consider `COc1ccc([C@]2(C#N)CC[C@@H](C(=O)O)CC2)c2cc(C(=O)c3ccccc3)oc12` [化合物111, シス−4−(2−ベンゾイル−7−メトキシベンゾフラン−4−イル)−4−シアノシクロヘキサンカルボン酸], for which the inhibition was no less than 50%.

As to `COc1ccc([C@]2(C#N)CC[C@@H](C(=O)O)CC2)c2cc(C(=O)c3ccncc3)oc12` [化合物112, シス−4−シアノ−4−(2−イソニコチノイル−7−メトキシベンゾフラン−4−イル)シクロヘキサンカルボン酸], the inhibition was no less than 50%. With `COc1ccc([C@]2(C#N)CC[C@@H](C(=O)O)CC2)c2cc(C(=O)c3cc[n+]([O-])cc3)oc12` [化合物113, シス−4−シアノ−4−(2−(イソニコチノイル−1−オキシド)−7−メトキシベンゾフラン−4−イル)シクロヘキサンカルボン酸, 0.2H2O], the inhibition was no less than 50%. Regarding `COc1ccc([C@]2(C#N)CC[C@@H](C(=O)O)CC2)c2cc(C(=O)N3CCN(C)CC3)oc12` [化合物114, シス−4−シアノ−4−(7−メトキシ−2−(4−メチルピペラジン−1−イルカルボニル)ベンゾフラン−4−イル)シクロヘキサンカルボン酸 塩酸塩], the inhibition is no less than 50%. As to `COc1ccc([C@]2(C#N)CC[C@@H](C(=O)O)CC2)c2cc(C(=O)N3CCN(CCO)CC3)oc12` [化合物115, シス−4−シアノ−4−(2−(4−(2−ヒドロキシエチル)ピペラジン−1−イルカルボニル)−7−メトキシベンゾフラン−4−イル)シクロヘキサンカルボン酸 塩酸塩], the inhibition was no less than 50%. As to `COc1ccc([C@]2(C#N)CC[C@@H](C(=O)O)CC2)c2cc(C(=O)N3CCC(N4CCCC4)CC3)oc12` [化合物116, シス−4−シアノ−4−(7−メトキシ−2−(4−(ピロリジン−1−イル)ピペリジノカルボニル)ベンゾフラン−4−イル)シクロヘキサンカルボン酸 塩酸塩], the inhibition is no less than 50%. Consider `COc1ccc([C@]2(C#N)CC[C@@H](C(=O)O)CC2)c2cc(C#N)oc12` [化合物121, シス−4−シアノ−4−(2−シアノ−7−メトキシベンゾフラン−4−イル)シクロヘキサンカルボン酸], for which the inhibition is no less than 50%. Consider `C=Cc1ccc([C@]2(C#N)CC[C@@H](C(=O)O)CC2)c2cc(C(=O)c3ccccc3)oc12` [化合物122, シス−4−(2−ベンゾイル−7−ビニルベンゾフラン−4−イル)−4−シアノシクロヘキサンカルボン酸, 0.4H2O], for which the inhibition was no less than 50%.

With `CCc1ccc([C@]2(C#N)CC[C@@H](C(=O)O)CC2)c2cc(C(=O)c3ccccc3)oc12` [化合物123, シス−4−(2−ベンゾイル−7−エチルベンゾフラン−4−イル)−4−シアノシクロヘキサンカルボン酸], the inhibition is no less than 50%. Consider `COc1ccc([C@]2(C#N)CC[C@@H](C(=O)O)CC2)c2oc(C(=O)c3ccccc3)cc12` [化合物124, シス−4−(2−ベンゾイル−4−メトキシベンゾフラン−7−イル)−4−シアノシクロヘキサンカルボン酸], for which the inhibition is no less than 50%. As for `C=Cc1ccc([C@]2(C#N)CC[C@@H](C(=O)O)CC2)c2oc(C(=O)c3ccccc3)cc12` [化合物126, シス−4−(2−ベンゾイル−4−ビニルベンゾフラン−7−イル)−4−シアノシクロヘキサンカルボン酸], the inhibition is no less than 50%. Regarding `CCc1ccc([C@]2(C#N)CC[C@@H](C(=O)O)CC2)c2oc(C(=O)c3ccccc3)cc12` [化合物127, シス−4−(2−ベンゾイル−4−エチルベンゾフラン−7−イル)−4−シアノシクロヘキサンカルボン酸], the inhibition was no less than 50%.

The experiment is the same for the next values; noted with them: read-out: enzyme inhibitory activity.
Consider `COc1ccc(C2(C#N)CCN(CC(=O)O)CC2)c2cc(C(C)C)oc12` [化合物77, 2−(4−シアノ−4−(2−イソプロピル−7−メトキシベンゾフラン−4−イル)ピペリジン−1−イル)酢酸 塩酸塩], for which the inhibition at 1 µM was no less than 50%. Take `COc1ccc(C2(C#N)CCN(CC(=O)O)CC2)c2cc(C(C)(C)C)oc12` [化合物78, 2−(4−(2−tert−ブチル−7−メトキシベンゾフラン−4−イル)−4−シアノピペリジン−1−イル)酢酸 塩酸塩]: the inhibition at 1 µM is no less than 50%.

For the compound `COc1ccc(C2(C#N)CCN(CC(=O)O)CC2)c2cc(CC(C)C)oc12` [化合物79, 2−(4−シアノ−4−(2−イソブチル−7−メトキシベンゾフラン−4−イル)ピペリジン−1−イル)酢酸 塩酸塩], the inhibition at 1 µM was no less than 50%. Regarding `COc1ccc(C2(C#N)CCN(CC(=O)O)CC2)c2cc(CC(C)(C)C)oc12` [化合物80, 2−(4−(7−メトキシ−2−ネオペンチルベンゾフラン−4−イル)−4−シアノピペリジン−1−イル)酢酸 塩酸塩], the inhibition at 1 µM was no less than 50%. With `COc1ccc(C2(C#N)CCN(CC(=O)O)CC2)c2cc(Cc3ccccc3)oc12` [化合物81, 2−(4−(2−ベンジル−7−メトキシベンゾフラン−4−イル)−4−シアノピペリジン−1−イル)酢酸 塩酸塩], the inhibition at 1 µM is no less than 50%. As to `COc1ccc(C2(C#N)CCN(CC(=O)O)CC2)c2cc(C3CCC3)oc12` [化合物82, 2−(4−シアノ−4−(2−シクロブチル−7−メトキシベンゾフラン−4−イル)ピペリジン−1−イル)酢酸 塩酸塩], the inhibition at 1 µM was no less than 50%. As for `COc1ccc(C2(C#N)CCN(CC(=O)O)CC2)c2cc(C3CC3)oc12` [化合物83, 2−(4−シアノ−4−(2−シクロプロピル−7−メトキシベンゾフラン−4−イル)ピペリジン−1−イル)酢酸 塩酸塩], the inhibition at 1 µM is no less than 50%. The same measure, in the same setting: the figure for `COc1ccc(C2(C#N)CCN(CC(=O)O)CC2)c2cc(C3CC3C)oc12` (centres unmarked) [化合物84, 2−(4−シアノ−4−(7−メトキシ−2−(2−メチルシクロプロピル)ベンゾフラン−4−イル)ピペリジン−1−イル)酢酸 塩酸塩] is no less than 50%.

Consider `COc1ccc(C2(C#N)CCN(CC(=O)O)CC2)c2cc(C3(C)CC3)oc12` [化合物87, 2−(4−シアノ−4−(7−メトキシ−2−(1−メチルシクロプロピル)ベンゾフラン−4−イル)ピペリジン−1−イル)酢酸 塩酸塩], for which the inhibition at 1 µM was no less than 50%. On to `COc1ccc(C2(C#N)CCN(CC(=O)O)CC2)c2cc(C3(c4ccccc4)CC3)oc12` [化合物88, 2−(4−シアノ−4−(7−メトキシ−2−(1−フェニルシクロプロピル)ベンゾフラン−4−イル)ピペリジン−1−イル)酢酸 塩酸塩], for which the inhibition at 1 µM is no less than 50%. For the compound `N#CC1(c2ccc(OC(F)F)c3oc(C4CC4)cc23)CCN(CC(=O)O)CC1` [化合物89, 2−(4−シアノ−4−(2−シクロプロピル−7−ジフルオロメトキシベンゾフラン−4−イル)ピペリジン−1−イル)酢酸 塩酸塩], the inhibition at 1 µM is no less than 50%. As for `COc1ccc(C2(C#N)CCN(CC(=O)O)CC2)c2c3c(oc12)CCCC3` [化合物100, 2−(4−シアノ−4−(6−メトキシ−1,2,3,4−テトラヒドロジベンゾフラン−9−イル)ピペリジン−1−イル)酢酸 塩酸塩], the inhibition at 1 µM is no less than 50%.
